Each structure is given as a SMILES string. Some results are limits rather than exact numbers.

The target in test [1] is T1, β2AR (Homo sapiens, UniProt P07550).
T1 construct: host or cells: HEK293 cells stably expressing (EA)-β-arrestin-2
Description: β-arrestin-2 recruitment assay (PathHunter enzyme fragment complementation), norepinephrine-stimulated. The test is classed as cell-based. To be noted: for negative allosteric effect on norepinephrine-stimulated β-arrestin 2 recruitment (in words): analogs tested at 10 μM and 30 μM compared to norepinephrine alone (FIG. 9); for inhibition at 30 µM: arrestin recruitment stimulated by norepinephrine after preincubation with 30 μM of the test compound; for inhibition at 30 µM / inhibition at 10 µM: read-out: attenuation of Emax (maximum efficacy of norepinephrine); for inhibition at 10 µM: arrestin recruitment stimulated by norepinephrine, attenuating effect at 10 μM of the test compound. Here is the method: (§1) β-Arrestin-2 Recruitment Assay. Determination of β-arrestin-2 recruitment was performed applying the PathHunter assay (DiscoverX, Birmingham, U.K.) which is based on fragment complementation of β-galactosidase in HEK293 cells stably expressing (EA)-β-arrestin-2 and being transiently transfected with a receptor tagged to the PK fragment. In general, cells were transfected employing Mirus TransIT-293 (peqlab, Erlangen, Germany) and incubated in DMEM/F12 medium (Life Technologies, Darmstadt, Germany) at 37° C. and 5% of CO2. After 24 hrs cells were detached with Versene (Life Technologies) and transferred into 384-well plates (white plate, transparent bottom, Greiner Bio-One, Frickenhausen, Germany) at a density of 5000 cells/well using the medium CP4 Reagent (DiscoverX). After further 24 hrs of incubation test compounds dissolved in PBS were added to the cells at a final volume of 25 μL and incubated at 37° C. for a distinct time which was optimized for each receptor (details are summarized in the supporting information). Determination of β-arrestin-2 recruitment was started by adding detection mix, incubation at room temperature for 60 min and measuring chemoluminescence with a Clariostar plate reader (BMG, Ortenberg, Germany). For measuring allosteric effects the modulator was preincubated with the cells at a distinct concentration for 30 min followed by the addition of reference agonist. Data analysis of functional experiments were performed by normalizing the raw data relative to basal activity (0%) and the maximum effect of the reference agonist (100%). Normalized curves from three to seven individual experiments each done as duplicate were analyzed by non-linear regression applying the algorithms in Prism 6.0 (GraphPad, San Diego, Calif.) to get dose-response curves representing average EC50 and Emax value.
β-Arrestin-2 Recruitment Assay. β-Arrestin-2 recruitment was performed applying the fragment complementation assay PathHunter (DiscoverX) with HEK293 cells stably expressing (EA)-β-arrestin-2. The appropriate receptor was transiently transfected when using a specific pCMV vectors with the PK-tag located at different distances downstream of the C-terminus of the inserted receptor (PK1, PK2 and PK-ARMS2, purchased from DiscoverX, Birmingham, UK). ADRB2-PK encoding the human β2AR was purchased from DiscoverX, while all other vectors with related GPCRs were engineered by inserting the DNA of the appropriate receptor in frame into the different PK constructs further excluding the stop codon. Mutants of the β2AR were done applying polymerase chain reaction with appropriate primers.

In test [2] the test system is other Family A GPCRs (α2AAR, 5-HT1AR, M2AChR, D2longDR, PAR2, NTS1R, μOR, κOR, δOR). Nature of the test: β-arrestin-2 recruitment assay, subtype selectivity. The test is classed as cell-based. Here is the method: as §1
(§2) β-Arrestin-2 Recruitment Assay. β-Arrestin-2 recruitment was performed applying the fragment complementation assay PathHunter (DiscoverX) with HEK293 cells stably expressing (EA)-β-arrestin-2. […]

A further test deals with T2, α1AAR (Homo sapiens, UniProt P35348).
T2 construct: expressed in transfected cells; host or cells: HEK293 cells stably expressing (EA)-β-arrestin-2
T2 sequence (P35348 1-466): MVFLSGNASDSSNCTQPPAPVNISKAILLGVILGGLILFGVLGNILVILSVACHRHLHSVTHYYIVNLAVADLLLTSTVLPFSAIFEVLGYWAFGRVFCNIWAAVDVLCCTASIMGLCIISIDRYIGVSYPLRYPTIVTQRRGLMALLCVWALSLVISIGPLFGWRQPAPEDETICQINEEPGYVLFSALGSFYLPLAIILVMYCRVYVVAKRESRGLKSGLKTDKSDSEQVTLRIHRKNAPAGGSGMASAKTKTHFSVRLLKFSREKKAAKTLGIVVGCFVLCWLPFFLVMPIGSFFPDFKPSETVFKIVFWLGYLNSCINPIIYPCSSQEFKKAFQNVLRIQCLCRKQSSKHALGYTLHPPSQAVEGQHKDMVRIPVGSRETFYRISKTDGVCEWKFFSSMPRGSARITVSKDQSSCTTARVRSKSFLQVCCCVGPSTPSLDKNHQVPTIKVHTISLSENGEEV
The description is as above. In kind it is cell-based. On the procedure: as §1, §2

The next test deals with T3, β1AR (Mus musculus, UniProt P34971).
T3 construct: expressed in transfected cells; host or cells: HEK293 cells stably expressing (EA)-β-arrestin-2
The test is described as above. In kind it is cell-based. On the procedure: as §1, §2

Test [3] relates to β2AR E122^3.41 mutants (E122L, E122Q, E122R). Description: Radioligand binding assay with [3H]DHAP, E122 mutants. To be noted: all of the mutants, relative to wild type. More on the design: species or system human. Here is the method: Membranes prepared from Sf9 cells infected with baculoviruses expressing β2AR (wt) or E122 mutants in the absence or presence of co-expressed Gs heterotrimer were assessed by radioligand binding with [^3H]DHAP. […] Ki's were determined using Graphpad (Prism, San Diego) using the Kd of [^3H]DHAP specific for β2AR (wt) and each mutant, according to the Cheng-Prusoff equation. Values for high affinity agonist site (Khigh) and low affinity site (Klow) from membranes prepared from β2AR (wt) or mutants co-infected with Gs heterotrimer were determined by non-linear regression fitting (2-site) using Kd values of [^3H]DHAP, as above (Graphpad, San Diego).
Radioligand binding assay. […] Samples were taken at varying time points, filtered and washed as described below to remove free [^3H]formoterol. For [^3H]DHAP saturation isotherms of β2AR and mutants, membranes were incubated with varying concentrations of [^3H]DHAP and filtered as described below. Samples were subject to rapid filtration through GF/B membranes and rinsed with ice cold binding buffer to remove free [^3H]probe. Filter plates were dried before adding Microscint 0 and counting bound [^3H]probe using a Packard TopCount. All data were analyzed using Graphpad (Prism, San Diego Calif.).

In test [4] the target is T1, β2AR. Nature of the test: cAMP accumulation assay (FRET-Epac sensor). In kind it is cell-based.
Description: cAMP accumulation assays. Intact cell cAMP accumulation was measured using the FRET-epac sensor in stable HEK293-Epac cells endogenously expressing β2AR or in CHO cells co-transfected with Epac and β2AR or the mutants. Cells were harvested with lifting buffer (20 mM HEPES, pH 7.4, 150 mM NaCl and 0.68 mM EDTA), centrifuged and resuspended in HBSS-HEPES (Hank's Balanced Salt Solution plus 20 mM HEPES, pH 7.4) containing 0-150 μM modulator or vehicle (for a final assay concentration of 0-100 μM). This cell suspension (100 μL) was pipetted into the wells of a 96 well plate (black with clear bottom). After 20 min in the dark at 37° C., 50 μL of HBSS-HEPES buffer at 37° C. containing 1B MX (1 mM final), ascorbic acid (1 mM final), and norepinephrine or epinephrine (0-100 μM final) was added. The CFP/YFP ratio of the Epac-cAMP FRET sensor was immediately measured for 15 min using wavelengths of 435 nm for excitation with 485 nm and 530 nm for emission using a SpectraMax M5 (Molecular Devices).

T1 sequence (P07550 whole entry): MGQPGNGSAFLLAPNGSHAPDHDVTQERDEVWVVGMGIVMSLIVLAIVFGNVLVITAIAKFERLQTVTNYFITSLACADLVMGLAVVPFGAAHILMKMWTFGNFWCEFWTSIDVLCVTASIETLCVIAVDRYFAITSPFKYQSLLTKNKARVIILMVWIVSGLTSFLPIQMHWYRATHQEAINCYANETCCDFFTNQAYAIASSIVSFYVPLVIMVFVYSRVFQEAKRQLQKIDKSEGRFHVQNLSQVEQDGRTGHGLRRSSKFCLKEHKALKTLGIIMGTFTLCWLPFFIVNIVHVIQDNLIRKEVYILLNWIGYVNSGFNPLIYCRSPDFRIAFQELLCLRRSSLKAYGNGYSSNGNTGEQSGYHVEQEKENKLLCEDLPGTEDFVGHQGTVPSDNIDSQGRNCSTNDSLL
T3 sequence (P34971 whole entry): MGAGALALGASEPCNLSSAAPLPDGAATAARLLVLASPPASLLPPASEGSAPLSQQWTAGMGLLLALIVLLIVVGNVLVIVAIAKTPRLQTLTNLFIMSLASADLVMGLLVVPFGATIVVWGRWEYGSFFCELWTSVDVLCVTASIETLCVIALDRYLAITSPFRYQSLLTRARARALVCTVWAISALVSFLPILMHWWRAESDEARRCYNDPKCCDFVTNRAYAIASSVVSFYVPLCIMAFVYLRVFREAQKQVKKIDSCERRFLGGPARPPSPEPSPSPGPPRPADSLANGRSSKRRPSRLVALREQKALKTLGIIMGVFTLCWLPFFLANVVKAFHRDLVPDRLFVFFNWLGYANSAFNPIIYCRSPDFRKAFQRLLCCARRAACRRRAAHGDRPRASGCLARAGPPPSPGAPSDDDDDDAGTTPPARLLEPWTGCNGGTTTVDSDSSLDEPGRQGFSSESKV

Turning to `Nc1nc(Nc2ccccc2)nc2ccc(C(F)(F)F)cc12` [DD293, 6-Trifluoromethyl-N^2-phenylquinazoline-2,4-diamine], on β2AR [1], the “negative allosteric effect on norepinephrine-stimulated β-arrestin 2 recruitment (in words)” value (“negative allosteric effect” for short) is on record as “activity comparable to Br” and the inhibition at 30 µM lay within 71 to 100%.

For the compound `Nc1nc(Nc2ccccc2)nc2cc(Br)ccc12` [AS436, 7-Bromo-N^2-phenylquinazoline-2,4-diamine], on β2AR [1], the “negative allosteric effect” value was “reduced allosteric modulation” and the inhibition at 30 µM fell in the range of 31 to 70%.

On to `Nc1nc(Nc2ccccc2)nc2ccc(F)cc12` [DD284, 6-Fluoro-N^2-phenylquinazoline-2,4-diamine], for which, on β2AR [1], the “negative allosteric effect” value is “less potent” and the inhibition at 30 µM is under 30%.

`Nc1nc(Nc2ccccc2CO)nc2ccc(Br)cc12` [DD283, 6-Bromo-N^2-(2-hydroxymethyl)phenylquinazoline-2,4-diamine]: at β2AR [1], the inhibition at 30 µM is under 30%.

For the compound `Nc1nc(Nc2ccccc2)nc2cccc(Br)c12` [AS094, 5-Bromo-N^2-phenylquinazoline-2,4-diamine], on β2AR [1], the “negative allosteric effect” value is reported as “reduced allosteric modulation” and the inhibition at 30 µM lay within 31 to 70%.

For `Nc1nc(Nc2ccc3ccccc3c2)nc2ccc(Br)cc12` [DD290, 6-bromo-N2-(naphthalen-2-yl)quinazoline-2,4-diamine], the inhibition at 10 µM on β2AR [1] is under 30%.

In the case of `CCCNc1nc(N)c2ccccc2n1` [BRAC1-5], the “negative allosteric effect” value on β2AR [1] is given as “reduces the negative allosteric effect”.

For the compound `Nc1nc(Nc2cccc(CCC(=O)OCC(O)CO)c2)nc2ccc(Br)cc12` (stereo not drawn) [DD294, 2,3-dihydroxypropyl-(3-((4-amino-6-bromoquinazolin-2-yl)amino)phenyl)propanoate], the inhibition at 30 µM at β2AR [1] is under 30%.

As to `COC(=O)c1ccc(Nc2nc(N)c3ccccc3n2)c(O)c1` [JT11, Methyl 4-((4-aminoquinazolin-2-yl)amino)-3-hydroxybenzoate], on β2AR [1], the inhibition at 10 µM is under 30%.

Regarding `COC(=O)c1ccc(Nc2nc(N)c3c(Cl)cccc3n2)cc1` [AS228, Methyl 4-((4-amino-5-chloroquinazolin-2-yl)amino)benzoate], the inhibition at 30 µM at β2AR [1] was under 30%.

On to `Nc1nc(Nc2ccccc2)nc2ccc(-c3ccccc3)cc12` [ST240, N^2,6-Diphenylquinazoline-2,4-diamine], for which, on β2AR [1], the “negative allosteric effect” value is given as “further disruption of the negative allosteric effect” and the inhibition at 30 µM fell in the range of 31 to 70%.

Turning to `Nc1nc(Nc2ccccc2)nc2ccc(I)cc12` [ST239, 6-Iodo-N^2-phenylquinazoline-2,4-diamine], at β2AR [1], the “negative allosteric effect” value is recorded as “activity comparable to Br” and the inhibition at 30 µM lay within 71 to 100%.

Consider `COC(=O)c1ccc(Nc2nc(N)c3c(F)cccc3n2)c(O)c1` [AS202, Methyl 4-((4-amino-5-fluoroquinazolin-2-yl)amino)-3-hydroxybenzoate], for which, on β2AR [1], the inhibition at 30 µM was under 30%.

With `Nc1nc(Nc2ccccc2)nc2c(Br)cccc12` [AS241, 8-Bromo-N^2-phenylquinazoline-2,4-diamine], at β2AR [1], the “negative allosteric effect” value is “reduced allosteric modulation” and the inhibition at 30 µM is 31 to 70%.

For `Brc1ccc2nc(Nc3ccccc3)ncc2c1` [DD288, 6-Bromo-/V-phenylquinazolin-2-amine], on β2AR [1], the “negative allosteric effect” value is on record as “attenuated negative allosteric effect” and the inhibition at 30 µM is 31 to 70%.

For the compound `Nc1nc(Nc2ccc(S(N)(=O)=O)cc2)nc2ccccc12` [AS197, 4-((4-Aminoquinazolin-2-yl)amino)benzenesulfonamide], the inhibition at 30 µM on β2AR [1] was under 30%.

For `Nc1nc(Nc2ccccc2)nc2ccc(Cl)cc12` [DD282, 6-Chloro-N^2-phenylquinazoline-2,4-diamine], on β2AR [1], the “negative allosteric effect” value is “activity comparable to Br” and the inhibition at 30 µM is 71 to 100%.

Consider `Nc1nc(Nc2ccccc2)nc2ccc(Br)cc12` [AS408, 6-Bromo-N^2-phenylquinazoline-2,4-diamine], for which the “allosteric activity at the other GPCRs tested” value in test [2] is recorded as “no allosteric activity”. Besides, on α1AAR, the “allosteric activity at α1AR” value was “weak NAM”. In addition, at β1AR, the “potency at β1AR relative to β2AR” value was “small reduction in the potency”. For the same compound, in test [3], the “effect of AS408 on agonist binding affinity at E122 mutants” value is recorded as “reduced relative to the wild-type receptor”.

For the compound `Nc1nc(Nc2cccc(O)c2)nc2ccccc12` [BRAC1-23], on β2AR [1], the “negative allosteric effect” value is recorded as “Reduction of the allosteric effect”.

Turning to `Nc1nc(Nc2cccc(CCC(=O)O)c2)nc2ccc(Br)cc12` [DD291, 3-(3-((4-amino-6-bromoquinazolin-2-yl)amino)phenyl)propanoic acid], the inhibition at 30 µM at β2AR [1] is under 30%.

Regarding `CC(C)c1ccc2nc(Nc3ccccc3)nc(N)c2c1` [ST238, 6-Isopropyl-N^2-phenylquinazoline-2,4-diamine], on β2AR [1], the inhibition at 30 µM lay within 31 to 70%.

With `Nc1nc(Nc2ccccc2O)nc2cccc(Cl)c12` [JT12, 2-((4-Amino-5-chloroquinazolin-2-yl)amino)phenol], at β2AR [1], the inhibition at 30 µM is under 30%.

As to `Nc1nc(Nc2ccccc2)nc2cccc(Cl)c12` [AS098, 5-Chloro-N^2-phenylquinazoline-2,4-diamine], the inhibition at 30 µM at β2AR [1] was 31 to 70%.

For the compound `Nc1nc(Nc2ccccc2)nc2ccccc12` [BRAC1], the “negative allosteric effect” value at β2AR [1] is “weak, negative allosteric regulation”. Further, the “negative allosteric regulation of cAMP accumulation (in words)” value on β2AR [4] was “weak, negative allosteric regulation”.

For the compound `CNC(=O)c1ccc(Nc2nc(N)c3ccccc3n2)cc1` [AS198, 4-((4-Aminoquinazolin-2-yl)amino)-N-methylbenzamide], the inhibition at 30 µM on β2AR [1] is under 30%.

Take `Nc1nc(Nc2ccccc2)nc2c(Cl)cccc12` [AS328, 8-Chloro-N^2-phenylquinazoline-2,4-diamine]: the inhibition at 30 µM at β2AR [1] was in the range of 31 to 70%.

Values taken from patent US20210353626A1, “BETA-ADRENERGIC RECEPTOR ALLOSTERIC MODULATORS” (THE REGENTS OF THE UNIVERSITY OF CALIFORNIA, priority 2018, published 2021).
